Assay results as given in ChEMBL document CHEMBL5120754, “Structural modification aimed for improving solubility of lead compounds in early phase drug discovery” (Bioorg Med Chem, 2022).
Values after ≈ are worked out from the molar mass of the structure shown.

Key:
[1] = Inhibition of rabbit aortic ACAT; design: species or system Oryctolagus cuniculus
physchem [2] = settings: buffer
Plasmodium falciparum [3] = experiment: Antimalarial activity against blood stage multidrug-resistant Plasmodium falciparum K1; assay type: functional, organism-based
Plasmodium falciparum [4] = experiment: Antimalarial activity against blood stage drug-sensitive Plasmodium falciparum NF54; assay type: functional, organism-based
[5] = tested on: Trypanosoma brucei brucei; experiment: Antitrypanosomal activity against Trypanosoma brucei brucei S427 incubated for 48 hrs by PrestoBlue dye based fluorescence assay; assay type: functional, organism-based; settings: S427, 48 h
Glutamate NMDA receptor = experiment: Antagonist activity at NMDA receptor in rat cortical wedges assessed as inhibition of NMDA-induced depolarization
[6] = Inhibition of PI3K (unknown origin) activity; design: species or system Homo sapiens
[7] = molecular target: T1, Glucose-dependent insulinotropic receptor (Homo sapiens, UniProt Q8TDV5); experiment: Agonist activity at GPR119 (unknown origin); assay type: functional
T1 sequence (Q8TDV5 whole entry): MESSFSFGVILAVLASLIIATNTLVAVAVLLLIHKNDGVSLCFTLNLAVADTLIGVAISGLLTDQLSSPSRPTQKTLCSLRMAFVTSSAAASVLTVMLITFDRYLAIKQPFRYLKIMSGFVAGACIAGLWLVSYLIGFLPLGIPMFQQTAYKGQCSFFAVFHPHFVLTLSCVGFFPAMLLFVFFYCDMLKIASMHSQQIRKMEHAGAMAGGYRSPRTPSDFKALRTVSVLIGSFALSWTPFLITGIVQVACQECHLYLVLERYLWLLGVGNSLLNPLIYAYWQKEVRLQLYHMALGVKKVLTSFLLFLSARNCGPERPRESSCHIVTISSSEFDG

[8] = Lipophilicity, logD of compound; assay type: physicochemical; settings: octanol/water
[9] = molecular target: T1, Glucose-dependent insulinotropic receptor; experiment: Agonist activity at human GPR119; assay type: functional
Plasmodium falciparum [10] = experiment: Antimalarial activity against blood stage chloroquine-sensitive Plasmodium falciparum 3D7 infected in human red blood cells measured by [3H]hypoxanthine incorporation assay; assay type: functional, organism-based, RBC; settings: 3D7, Erythrocyte
[11] = molecular target: Tyrosine-protein kinase SYK (Homo sapiens, UniProt P43405); experiment: Inhibition of SYK (unknown origin)
[12] = molecular target: cGMP-specific 3',5'-cyclic phosphodiesterase (Homo sapiens, UniProt O76074); experiment: Inhibition of PDE5 (unknown origin) using FAM-cGMP or FAM-cAMP as substrate incubated for 60 mins and measured by fluorescence polarization assay
A549 [13] = experiment: Antiproliferative activity against human A549 cells; assay type: functional, cell-based; settings: read-out: TD50 (the source's name)
HCT-116 = experiment: Antiproliferative activity against human HCT-116 cells; assay type: functional, cell-based
Heat shock protein HSP90 = Heat shock protein HSP90 (Homo sapiens, UniProt P07900+P08238); experiment: Inhibition of HSP90 (unknown origin); assay type: protein assay
[14] = buffer
A549 [15] = experiment: Antiproliferative activity against human A549 cells by MTT assay; assay type: functional, cell-based
[16] = Antagonist activity at GlyN receptor (unknown origin); design: species or system Homo sapiens
[17] = molecular target: Glutamate receptor ionotropic AMPA (Homo sapiens, UniProt P42261+P42262+P42263+P48058); experiment: Antagonist activity at AMPA receptor (unknown origin); assay type: protein-complex assay
Staphylococcus aureus = experiment: Antibacterial activity against methicillin-resistant Staphylococcus aureus in in-vivo systemic infection model; assay type: functional
[18] = molecular target: Corticotropin-releasing factor receptor 1 (Homo sapiens, UniProt P34998); experiment: Antagonist activity at human CRF1 receptor; assay type: functional
[19] = molecular target: 3',5'-cyclic-AMP phosphodiesterase 4D (Homo sapiens, UniProt Q08499); experiment: Inhibition of PDE4D (unknown origin)
[20] = molecular target: Peroxisome proliferator-activated receptor gamma (Homo sapiens, UniProt P37231); experiment: Agonist activity at human PPARgamma
[21] = molecular target: Metabotropic glutamate receptor 2 (Homo sapiens, UniProt Q14416); experiment: Positive allosteric modulation of mGlu2 receptor (unknown origin)
physchem [22] = settings: octanol/water
[23] = Permeability of compound in human Caco-2 cells; assay type: ADME, cell-based; settings: read-out: permeability
[24] = molecular target: Histone-lysine N-methyltransferase EZH2 (Homo sapiens, UniProt Q15910, Y641N); experiment: Inhibition of EZH2 Y641N mutant (unknown origin)
[25] = molecular target: Epidermal growth factor receptor (Homo sapiens, UniProt P00533, L858R/T790M)
[26] = tested on: Mycobacterium tuberculosis; experiment: microbe, parasite or virus in culture
[27] = molecular target: Bifunctional epoxide hydrolase 2 (Homo sapiens, UniProt P34913); experiment: Inhibition of recombinant human sEH using CMNPC as substrate incubated for 10 mins and measured by fluorescence assay
Cannabinoid receptor 2 = Cannabinoid receptor 2 (Homo sapiens, UniProt P34972); experiment: Binding affinity towards human CB2 receptor
[28] = molecular target: Transient receptor potential cation channel subfamily V member 1 (Homo sapiens, UniProt Q8NER1); experiment: Antagonist activity at TRPV1 (unknown origin)
P2Y purinoceptor 12 = P2Y purinoceptor 12 (Homo sapiens, UniProt Q9H244); experiment: Antagonist activity at P2Y12 receptor in human platelet rich plasma; assay type: functional
NCI-N87 = experiment: cells; settings: Homo sapiens, NCI-N87, 96 h
[29] = molecular target: Isocitrate dehydrogenase [NADP] cytoplasmic (Homo sapiens, UniProt O75874, R132H); experiment: Inhibition of IDH1 R132H mutant (unknown origin)
Hepatitis C virus = experiment: Antiviral activity against HCV GT1b-genotype; assay type: functional, organism-based, Hepacivirus hominis

Sequence of P2Y purinoceptor 12 (Q9H244 whole entry): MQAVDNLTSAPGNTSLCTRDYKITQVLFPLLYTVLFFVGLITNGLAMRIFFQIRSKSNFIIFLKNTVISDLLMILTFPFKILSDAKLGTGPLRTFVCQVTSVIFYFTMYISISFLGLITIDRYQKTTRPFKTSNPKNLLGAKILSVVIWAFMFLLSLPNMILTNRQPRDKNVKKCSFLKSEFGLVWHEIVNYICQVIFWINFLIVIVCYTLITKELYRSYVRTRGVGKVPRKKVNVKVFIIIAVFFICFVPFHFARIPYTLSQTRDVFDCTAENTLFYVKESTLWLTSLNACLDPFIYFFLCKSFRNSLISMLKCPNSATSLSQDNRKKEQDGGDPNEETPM
Sequence of Histone-lysine N-methyltransferase EZH2 (Q15910 whole entry Y641N): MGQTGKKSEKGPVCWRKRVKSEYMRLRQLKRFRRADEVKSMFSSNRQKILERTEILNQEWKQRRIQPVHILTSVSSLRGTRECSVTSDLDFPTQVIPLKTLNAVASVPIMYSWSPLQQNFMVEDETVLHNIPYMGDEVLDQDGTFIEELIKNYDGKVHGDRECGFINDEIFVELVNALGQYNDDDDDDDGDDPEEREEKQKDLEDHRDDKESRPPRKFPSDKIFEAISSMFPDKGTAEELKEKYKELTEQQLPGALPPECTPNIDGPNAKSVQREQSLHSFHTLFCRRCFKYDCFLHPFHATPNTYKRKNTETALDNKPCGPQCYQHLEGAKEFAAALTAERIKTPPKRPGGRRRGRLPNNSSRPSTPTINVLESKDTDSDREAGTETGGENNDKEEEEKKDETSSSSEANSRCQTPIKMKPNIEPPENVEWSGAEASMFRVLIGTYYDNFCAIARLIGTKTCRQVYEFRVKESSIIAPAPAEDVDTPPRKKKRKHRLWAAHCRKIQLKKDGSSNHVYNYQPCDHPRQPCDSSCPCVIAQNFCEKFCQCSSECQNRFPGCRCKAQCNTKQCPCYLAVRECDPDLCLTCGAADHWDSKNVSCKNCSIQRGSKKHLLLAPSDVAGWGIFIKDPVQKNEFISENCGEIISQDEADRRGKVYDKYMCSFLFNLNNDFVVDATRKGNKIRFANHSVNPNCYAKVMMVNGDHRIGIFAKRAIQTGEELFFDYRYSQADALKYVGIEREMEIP
Sequence of Peroxisome proliferator-activated receptor gamma (P37231 whole entry): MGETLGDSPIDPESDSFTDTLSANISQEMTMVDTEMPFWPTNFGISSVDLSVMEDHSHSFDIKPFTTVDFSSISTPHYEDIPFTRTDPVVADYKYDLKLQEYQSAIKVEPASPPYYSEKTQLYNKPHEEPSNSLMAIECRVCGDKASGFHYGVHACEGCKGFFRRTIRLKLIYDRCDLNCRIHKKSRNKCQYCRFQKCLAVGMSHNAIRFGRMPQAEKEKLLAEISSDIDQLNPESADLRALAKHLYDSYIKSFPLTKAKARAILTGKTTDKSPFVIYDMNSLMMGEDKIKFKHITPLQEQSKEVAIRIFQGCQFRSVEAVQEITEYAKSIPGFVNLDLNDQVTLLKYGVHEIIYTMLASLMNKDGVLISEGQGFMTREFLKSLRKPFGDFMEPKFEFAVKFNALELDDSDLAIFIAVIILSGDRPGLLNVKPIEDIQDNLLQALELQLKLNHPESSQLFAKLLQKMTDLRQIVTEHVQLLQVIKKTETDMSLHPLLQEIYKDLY
Sequence of Transient receptor potential cation channel subfamily V member 1 (Q8NER1 whole entry): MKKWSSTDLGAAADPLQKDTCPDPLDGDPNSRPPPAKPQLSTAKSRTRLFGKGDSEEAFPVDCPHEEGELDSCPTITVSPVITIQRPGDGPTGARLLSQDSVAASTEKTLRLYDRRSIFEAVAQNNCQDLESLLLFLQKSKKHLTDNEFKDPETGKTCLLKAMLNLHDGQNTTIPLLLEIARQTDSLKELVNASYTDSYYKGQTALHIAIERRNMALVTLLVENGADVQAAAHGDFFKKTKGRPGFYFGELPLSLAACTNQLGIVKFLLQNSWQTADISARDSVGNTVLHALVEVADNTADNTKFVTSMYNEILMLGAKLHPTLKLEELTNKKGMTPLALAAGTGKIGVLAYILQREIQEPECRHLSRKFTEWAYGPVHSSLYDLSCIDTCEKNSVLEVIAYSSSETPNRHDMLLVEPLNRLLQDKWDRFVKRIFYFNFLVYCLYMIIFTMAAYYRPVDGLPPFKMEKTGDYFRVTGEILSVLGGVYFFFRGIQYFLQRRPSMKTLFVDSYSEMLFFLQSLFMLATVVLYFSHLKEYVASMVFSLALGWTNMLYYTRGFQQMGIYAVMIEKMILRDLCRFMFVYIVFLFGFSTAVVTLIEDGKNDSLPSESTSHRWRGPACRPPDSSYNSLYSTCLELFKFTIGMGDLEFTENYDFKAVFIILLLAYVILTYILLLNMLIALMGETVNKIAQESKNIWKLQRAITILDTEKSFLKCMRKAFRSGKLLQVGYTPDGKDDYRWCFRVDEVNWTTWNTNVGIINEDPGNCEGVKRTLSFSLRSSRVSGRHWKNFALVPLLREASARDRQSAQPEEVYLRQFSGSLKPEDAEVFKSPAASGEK
Sequence of Metabotropic glutamate receptor 2 (Q14416 whole entry): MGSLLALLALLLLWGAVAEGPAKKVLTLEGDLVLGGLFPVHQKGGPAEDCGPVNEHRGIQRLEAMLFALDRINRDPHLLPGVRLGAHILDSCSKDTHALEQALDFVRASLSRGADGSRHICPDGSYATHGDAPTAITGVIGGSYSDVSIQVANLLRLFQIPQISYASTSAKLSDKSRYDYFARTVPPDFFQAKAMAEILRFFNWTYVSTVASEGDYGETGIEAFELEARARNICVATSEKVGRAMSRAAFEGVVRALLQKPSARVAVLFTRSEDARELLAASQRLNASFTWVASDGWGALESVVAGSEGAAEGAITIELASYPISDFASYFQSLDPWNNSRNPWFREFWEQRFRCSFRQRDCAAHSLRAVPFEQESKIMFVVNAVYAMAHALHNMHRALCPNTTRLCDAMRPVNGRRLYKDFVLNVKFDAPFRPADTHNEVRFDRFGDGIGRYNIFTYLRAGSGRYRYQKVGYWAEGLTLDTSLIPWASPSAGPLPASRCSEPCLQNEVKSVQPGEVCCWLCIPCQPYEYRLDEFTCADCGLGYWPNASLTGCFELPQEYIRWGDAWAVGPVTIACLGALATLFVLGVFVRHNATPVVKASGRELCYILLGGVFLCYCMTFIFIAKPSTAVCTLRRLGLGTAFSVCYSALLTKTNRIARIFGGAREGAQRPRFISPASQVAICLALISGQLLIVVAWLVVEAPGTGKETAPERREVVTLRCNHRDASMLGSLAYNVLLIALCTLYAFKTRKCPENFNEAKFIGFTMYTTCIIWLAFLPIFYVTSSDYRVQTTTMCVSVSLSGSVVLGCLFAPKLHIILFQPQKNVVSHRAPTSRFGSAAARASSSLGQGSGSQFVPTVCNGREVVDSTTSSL
Sequence of Corticotropin-releasing factor receptor 1 (P34998 whole entry): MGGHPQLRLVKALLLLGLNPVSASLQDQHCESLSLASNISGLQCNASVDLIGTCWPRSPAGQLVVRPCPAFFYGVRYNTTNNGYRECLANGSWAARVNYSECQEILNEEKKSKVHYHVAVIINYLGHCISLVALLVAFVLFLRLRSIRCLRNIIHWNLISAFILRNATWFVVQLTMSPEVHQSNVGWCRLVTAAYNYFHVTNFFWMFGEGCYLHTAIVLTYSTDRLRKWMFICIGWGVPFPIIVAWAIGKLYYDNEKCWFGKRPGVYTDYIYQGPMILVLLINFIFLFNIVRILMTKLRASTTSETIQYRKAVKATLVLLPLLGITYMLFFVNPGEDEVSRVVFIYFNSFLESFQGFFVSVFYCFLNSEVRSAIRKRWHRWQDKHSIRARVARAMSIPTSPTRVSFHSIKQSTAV
Sequence of 3',5'-cyclic-AMP phosphodiesterase 4D (Q08499 whole entry): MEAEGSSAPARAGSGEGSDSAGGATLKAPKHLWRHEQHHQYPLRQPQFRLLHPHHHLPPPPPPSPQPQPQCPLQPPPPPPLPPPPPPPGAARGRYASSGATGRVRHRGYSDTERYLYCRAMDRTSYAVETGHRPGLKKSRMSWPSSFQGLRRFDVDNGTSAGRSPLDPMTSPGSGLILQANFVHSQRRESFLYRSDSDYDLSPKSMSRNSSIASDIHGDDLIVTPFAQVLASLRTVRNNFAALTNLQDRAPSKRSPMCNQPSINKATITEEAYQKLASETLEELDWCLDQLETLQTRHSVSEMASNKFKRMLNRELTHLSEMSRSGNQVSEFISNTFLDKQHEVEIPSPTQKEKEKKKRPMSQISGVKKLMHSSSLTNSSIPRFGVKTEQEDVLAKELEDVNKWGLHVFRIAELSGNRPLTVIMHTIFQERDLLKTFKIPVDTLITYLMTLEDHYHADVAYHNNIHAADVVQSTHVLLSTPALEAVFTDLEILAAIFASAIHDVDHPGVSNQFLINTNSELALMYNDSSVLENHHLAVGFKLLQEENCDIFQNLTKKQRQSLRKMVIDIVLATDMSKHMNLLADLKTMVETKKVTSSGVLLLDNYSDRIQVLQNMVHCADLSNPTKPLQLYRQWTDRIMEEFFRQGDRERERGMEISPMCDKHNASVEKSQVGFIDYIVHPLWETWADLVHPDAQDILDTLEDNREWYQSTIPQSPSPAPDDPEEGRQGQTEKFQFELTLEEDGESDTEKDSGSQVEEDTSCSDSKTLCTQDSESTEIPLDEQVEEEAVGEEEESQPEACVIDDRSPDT
Sequence of Cannabinoid receptor 2 (P34972 whole entry): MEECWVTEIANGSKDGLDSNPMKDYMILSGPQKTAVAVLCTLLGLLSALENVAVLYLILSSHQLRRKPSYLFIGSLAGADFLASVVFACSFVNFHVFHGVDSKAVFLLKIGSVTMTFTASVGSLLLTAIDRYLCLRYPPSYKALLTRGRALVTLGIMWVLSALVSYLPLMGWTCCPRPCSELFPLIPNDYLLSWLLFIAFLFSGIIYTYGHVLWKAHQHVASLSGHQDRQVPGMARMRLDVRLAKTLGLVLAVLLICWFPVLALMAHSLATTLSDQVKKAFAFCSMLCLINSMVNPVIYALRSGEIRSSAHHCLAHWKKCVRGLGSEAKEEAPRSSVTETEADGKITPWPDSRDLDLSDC

SMILES: CC(C)c1cccc(C(C)C)c1NC(=O)CN1CCN(CCSc2nc3ccccc3o2)CC1
- IC50 [1]: 84 nM
- solubility thermodynamic (physchem [2]): 19000 µg/mL

SMILES: Nc1ncc(-c2ccc(C(=O)N3CC(O)C3)cc2)nc1-c1ccc(C(F)(F)F)nc1
- IC50 (Plasmodium falciparum [3]): 7 nM
- IC50 (Plasmodium falciparum [4]): 9.2 nM
- solubility thermodynamic (physchem [2]): 55 µM

SMILES: CN1CCCN(c2ncc(-c3ccc4c(Nc5cnccn5)ccnc4c3)cn2)CC1
- EC50 [5]: 13 nM

SMILES: CCC(c1c(Cl)c(Cl)cc2nc(O)c(O)nc12)n1cncn1 (centres undefined)
- solubility thermodynamic (physchem [2]): 10 µg/mL
- IC50 (Glutamate NMDA receptor): 4.4 nM

SMILES: CCN1CCN(c2cc(F)c(NC(=O)N3CCc4c(-c5cnc(N)nc5)nc(N5CCOCC5)nc43)c(F)c2)CC1
- IC50 [6]: 0.022 µg/mL (≈ 0.0388 µM)
- solubility thermodynamic (physchem [2]): 20 µg/mL

SMILES: CC(C)c1nc(N2CCN(c3ncc(OCc4ccncc4C#N)cn3)CC2)no1
- EC50 [7]: 6 nM
- solubility thermodynamic (physchem [2]): 6 µM
- logD [8]: 3.3

SMILES: CC(C)OC(=O)N1CCC(n2ncc3ccc(-c4cc(F)c(S(C)(=O)=O)cc4F)nc32)CC1
- EC50 [9]: 65 nM
- solubility thermodynamic (physchem [2]): 15.9 µM

SMILES: Cc1ccc(-c2cc(C(=O)Nc3cccnc3)c3cc(F)ccc3n2)cc1
- solubility thermodynamic (physchem [2]): 39 µM
- EC50 (Plasmodium falciparum [10]): 120 nM

SMILES: CC(C)N1C[C@H]2C[C@@H]1CN2c1ccc(Nc2nc(-c3ccc4cn[nH]c4c3)cn3ccnc23)cc1
- solubility thermodynamic (physchem [2]): 0.216 µg/mL
- IC50 [11]: 80 nM

SMILES: COc1ccc(CNc2c(CO)cnc3c(C4CC4)cc(C#N)cc23)cc1Cl
- solubility thermodynamic (physchem [2]): 3.9 µM
- IC50 [12]: 0.37 nM

SMILES: Cc1nc(C)c(CC2CC/C(=C\c3c(-c4ccccc4)n(C)c4ncccc34)C2=O)nc1C (centres undefined)
- CC50 (A549 [13]): 22000 nM
- solubility thermodynamic (physchem [2]): 94000 µg/mL

SMILES: CCc1cc(C(=O)N2Cc3ccc(CN4CCN(C)CC4)cc3C2)c(O)cc1O
- IC50 (HCT-116): 48 nM
- solubility thermodynamic (physchem [2]): 30000 µg/mL
- Kd (Heat shock protein HSP90): 0.71 nM

SMILES: CC(C)c1cccc(C(C)C)c1NC(=O)CCCCCCCCSc1nc2ccccc2o1
- IC50 [1]: 4 nM
- Therm_solubility [14]: 0.03 µg/mL

SMILES: CC[C@]1(OC(=O)CNC(=O)CCC(=O)O)C(=O)OCc2c1ccn(Cc1cnc3ccc4c(c3c1)C(=O)NC(C(C)C)O4)c2=O (some centres undefined)
- IC50 (A549 [15]): 6470 nM
- solubility thermodynamic (physchem [2]): 3400 µg/mL

SMILES: CCOC(=O)CN(C)Cc1c(CC)c([N+](=O)[O-])cc2nc(O)c(O)nc12
- IC50 [16]: 470 nM
- solubility thermodynamic (physchem [2]): 150 µg/mL
- IC50 [17]: 140 nM

SMILES: CC(=O)NC[C@H]1CN(c2ccc(N3CCOCC3)c(F)c2)C(=O)O1 [LINEZOLID]
- ED50 (Staphylococcus aureus): 5 mg/kg

SMILES: CCc1cc(C(=O)N2Cc3ccccc3C2)c(O)cc1O
- IC50 (HCT-116): 31 nM
- Kd (Heat shock protein HSP90): 0.54 nM

SMILES: CCCN(CC1CC1)c1cc(C)nc2c(-c3ccc(Cl)cc3Cl)c(C)nn12
- IC50 [18]: 76 nM

SMILES: O=C(O)C1CCC(c2cc3cccnc3c(-c3cccc(F)c3)n2)CC1 (centres undefined)
- IC50 [19]: 32 nM
- solubility thermodynamic (physchem [2]): 920 µg/mL

SMILES: CCCOc1ccc(CC(Cc2ccccc2)C(=O)O)cc1CNC(=O)c1ccc(-c2ncccn2)cc1 (centres undefined)
- EC50 [20]: 34.6 nM
- solubility thermodynamic (physchem [2]): 301 µg/mL

SMILES: Fc1ccc(C2CCC(c3ccn4c(CC5CC5)nnc4c3C(F)(F)F)CC2)c(F)c1 (centres undefined)
- EC50 [21]: 78 nM
- logP (physchem [22]): 4.2
- solubility thermodynamic (physchem [2]): 50 µg/mL
- Papp [23]: 22 ×10⁻⁶ cm/s

SMILES: COc1cc(C)[nH]c(=O)c1CN1CCc2c(Cl)cc([C@H](OC)C3COC3)c(Cl)c2C1=O [MEVROMETOSTAT]
- Ki [24]: < 0.1 nM

SMILES: C=CC(=O)N1CCC(N2C(=O)N(c3ccccc3)Cc3cnc(Nc4ccc(N5CCN(C)CC5)c(C)c4)nc32)C1 (centres undefined)
- IC50 [25]: 9.2 nM

SMILES: O=C(NC1=CC=CC1)NC12CC3CC(CC(C3)C1)C2
- MIC [26]: 0.01 µg/mL (≈ 0.0387 µM)
- solubility thermodynamic (physchem [2]): 0.1 µg/mL
- IC50 [27]: 0.4 nM

SMILES: CCCCCn1c(=O)c(C(=O)NC23CC4CC(CC(C4)C2)C3)c(O)c2ccc(F)cc21
- solubility thermodynamic (physchem [2]): 1.5 µg/mL
- Ki (Cannabinoid receptor 2): 0.8 nM

SMILES: CCc1cnc(N2CCC(n3ncc4ccc(-c5ccc(S(C)(=O)=O)cc5F)nc43)CC2)cn1
- EC50 [9]: 4 nM
- solubility thermodynamic (physchem [2]): 0.71 µM

SMILES: CC(=O)Nc1nc2c(Oc3cc(C4=CCC(C(F)(F)F)CC4)ncn3)cccc2s1 (centres undefined)
- IC50 [28]: 27 nM
- solubility thermodynamic (physchem [2]): 13 µg/mL

SMILES: CCOC(=O)c1cc(C#N)c(N2CCC(C(=O)NS(=O)(=O)Cc3ccccc3)CC2)nc1C
- solubility thermodynamic (physchem [2]): 2.99 µM
- IC50 (P2Y purinoceptor 12): 3600 nM

SMILES: CSc1nc(N)nc(-c2c(Cl)cc3c4c(cccc24)COC3)n1
- IC50 (NCI-N87): 570 nM
- solubility thermodynamic (physchem [2]): 29 µM

SMILES: COc1nc(N[C@@H](C)c2cc3cc(Cl)ccc3[nH]c2=O)ncc1C#N
- solubility thermodynamic (physchem [2]): 10.5 µM
- IC50 [29]: 81.4 nM

SMILES: COc1c(/C=C/c2ccc(NS(C)(=O)=O)cc2)cc(N2CCC(=O)NC2=O)cc1C(C)(C)C
- Therm_solubility [14]: 20700 µg/mL
- EC50 (Hepatitis C virus): 0.3 nM
